Test results from the CheMixHub ionic liquid set.

Experiment: xn = mol fraction of the nth substance listed
Details: 100 kPa

C[NH2+]CCC=C1c2ccccc2CCc2ccccc21.[Cl-] + CCCCCC[n+]1ccn(C)c1.[Br-] + O
viscosity [mPa·s]
Details	288.15 K	298.15 K	308.15 K	318.15 K
x1 = 0.0002039, x2 = 0.00126	1.185	0.957	0.792	0.677
x1 = 0.000208, x2 = 0.0001801	1.17	0.938	0.775	0.658
x1 = 0.0002218, x2 = 0.0007201	1.178	0.948	0.785	0.658
x1 = 0.0005639, x2 = 0.0001801	1.181	0.948	0.785	0.667
x1 = 0.0005652, x2 = 0.001259	1.196	0.967	0.802	0.688
x1 = 0.0005656, x2 = 0.0007199	1.189	0.957	0.794	0.667
x1 = 0.0009086, x2 = 0.0007196	1.201	0.967	0.803	0.676
x1 = 0.0009302, x2 = 0.00018	1.192	0.958	0.795	0.676
x1 = 0.0009557, x2 = 0.001259	1.208	0.978	0.812	0.699
x1 = 0.001281, x2 = 0.001258	1.22	0.989	0.822	0.709
x1 = 0.001285, x2 = 0.0001799	1.204	0.969	0.805	0.685
x1 = 0.001294, x2 = 0.0007194	1.213	0.977	0.812	0.685
x1 = 0.001641, x2 = 0.0001799	1.217	0.98	0.815	0.694
x1 = 0.001649, x2 = 0.0007191	1.226	0.988	0.821	0.694
x1 = 0.001666, x2 = 0.001258	1.233	1.001	0.832	0.719
x1 = 0.001985, x2 = 0.0001798	1.23	0.991	0.825	0.703
x1 = 0.002032, x2 = 0.0007188	1.239	0.999	0.831	0.703
x1 = 0.002034, x2 = 0.001257	1.246	1.013	0.843	0.728
x1 = 0.002348, x2 = 0.0001797	1.244	1.002	0.835	0.712
x1 = 0.002385, x2 = 0.0007186	1.253	1.012	0.842	0.712
x1 = 0.002389, x2 = 0.001257	1.26	1.025	0.854	0.737
x1 = 0.00272, x2 = 0.0001797	1.258	1.014	0.845	0.721
x1 = 0.002762, x2 = 0.0007183	1.267	1.025	0.854	0.721
x1 = 0.002776, x2 = 0.001256	1.275	1.037	0.865	0.746
x1 = 0.003079, x2 = 0.0001796	1.273	1.026	0.855	0.73
x1 = 0.003114, x2 = 0.000718	1.282	1.037	0.866	0.731
x1 = 0.003126, x2 = 0.001256	1.291	1.049	0.876	0.755
x1 = 0.003445, x2 = 0.0001796	1.288	1.038	0.865	0.739
x1 = 0.003472, x2 = 0.001255	1.307	1.063	0.888	0.764
x1 = 0.003507, x2 = 0.0007177	1.297	1.05	0.878	0.741
